Test results reported in patent US20080176936A1, “Classes of Compounds that Interact with Integrins” (priority 2005, published 2008).

Columns and labels:
[1] = target: T1, αllbβ3 integrin (Homo sapiens, UniProt P05106+P08514); assay: ELISA: inhibition of binding of αllbβ3 integrin membrane preparation to coated extracellular matrix protein; conditions: human platelet membrane preparation
T1 construct: Human platelet membrane preparations were used as a source of αllbβ3 integrin; from tissue; host or cells: human platelets (membrane preparation)
T1 sequence (P08514 32-887 limits assumed): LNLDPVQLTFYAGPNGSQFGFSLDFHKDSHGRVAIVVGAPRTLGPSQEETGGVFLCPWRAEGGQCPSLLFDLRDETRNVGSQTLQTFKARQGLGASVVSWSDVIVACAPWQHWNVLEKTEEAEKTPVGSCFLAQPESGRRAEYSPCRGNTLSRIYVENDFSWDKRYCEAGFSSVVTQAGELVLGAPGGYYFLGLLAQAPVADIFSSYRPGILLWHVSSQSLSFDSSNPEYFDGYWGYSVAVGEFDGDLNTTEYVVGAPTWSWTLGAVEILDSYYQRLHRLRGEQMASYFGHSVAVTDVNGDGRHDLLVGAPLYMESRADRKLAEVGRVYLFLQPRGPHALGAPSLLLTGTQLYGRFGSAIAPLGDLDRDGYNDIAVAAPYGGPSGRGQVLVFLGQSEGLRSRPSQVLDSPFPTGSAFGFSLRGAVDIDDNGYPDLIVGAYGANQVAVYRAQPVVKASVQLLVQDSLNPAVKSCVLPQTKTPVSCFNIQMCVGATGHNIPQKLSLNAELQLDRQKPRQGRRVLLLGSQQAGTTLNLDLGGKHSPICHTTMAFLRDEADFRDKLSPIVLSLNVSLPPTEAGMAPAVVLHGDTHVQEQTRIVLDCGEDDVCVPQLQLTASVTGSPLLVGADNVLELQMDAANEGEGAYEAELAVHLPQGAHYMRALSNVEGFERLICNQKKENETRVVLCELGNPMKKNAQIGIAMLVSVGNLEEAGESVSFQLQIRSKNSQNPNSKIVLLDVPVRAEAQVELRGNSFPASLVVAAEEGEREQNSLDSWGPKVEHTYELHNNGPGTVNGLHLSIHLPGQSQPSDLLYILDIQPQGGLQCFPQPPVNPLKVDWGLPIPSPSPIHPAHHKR
T1 sequence (P08514 891-1039 partner limits assumed): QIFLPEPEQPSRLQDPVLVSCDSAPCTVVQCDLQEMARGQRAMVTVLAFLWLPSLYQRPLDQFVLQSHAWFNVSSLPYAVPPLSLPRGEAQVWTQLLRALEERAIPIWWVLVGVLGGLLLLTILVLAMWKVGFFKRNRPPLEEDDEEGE
T1 sequence (P05106 27-788): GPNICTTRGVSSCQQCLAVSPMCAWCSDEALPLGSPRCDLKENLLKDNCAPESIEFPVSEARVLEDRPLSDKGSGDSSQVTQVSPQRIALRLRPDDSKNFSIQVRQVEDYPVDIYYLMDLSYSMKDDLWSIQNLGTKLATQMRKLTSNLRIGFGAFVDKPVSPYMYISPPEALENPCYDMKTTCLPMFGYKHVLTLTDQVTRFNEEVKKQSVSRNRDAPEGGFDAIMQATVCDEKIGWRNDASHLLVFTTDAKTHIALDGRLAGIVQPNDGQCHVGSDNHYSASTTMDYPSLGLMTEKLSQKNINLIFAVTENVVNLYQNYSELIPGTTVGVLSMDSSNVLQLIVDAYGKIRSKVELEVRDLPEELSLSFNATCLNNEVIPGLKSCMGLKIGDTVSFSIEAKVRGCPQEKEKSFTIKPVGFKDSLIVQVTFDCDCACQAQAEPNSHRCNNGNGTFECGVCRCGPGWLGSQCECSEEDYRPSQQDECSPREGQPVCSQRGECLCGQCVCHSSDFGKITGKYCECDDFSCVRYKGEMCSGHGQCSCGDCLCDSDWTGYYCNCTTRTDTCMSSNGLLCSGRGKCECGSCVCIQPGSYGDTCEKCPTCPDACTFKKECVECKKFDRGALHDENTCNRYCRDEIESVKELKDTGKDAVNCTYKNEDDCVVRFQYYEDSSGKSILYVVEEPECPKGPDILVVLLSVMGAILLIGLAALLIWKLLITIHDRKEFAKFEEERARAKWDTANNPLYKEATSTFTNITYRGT
Summary of the method: (§1)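 Wells were coated with fibrinogen or vitronectin (10 µg/well), and integrin binding was measured by ELISA. αIIbβ3 came from human platelet membranes and αVβ3 from WM-115 cells, each preincubated with compound. Bound integrin was detected with a rabbit anti-β3 antibody, an HRP secondary and a colorimetric readout.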

[2] = target: T2, αVβ3 integrin (Homo sapiens, UniProt P05106+P06756); assay: ELISA: inhibition of binding of αVβ3 integrin (source WM-115 cell line) to coated extracellular matrix protein; conditions: WM-115 cell line as integrin source
T2 construct: the cell line WM-115 was used as a source of αVβ3 integrin; endogenous in cells; host or cells: WM-115 cell line
T2 sequence (P06756 31-889 limits assumed): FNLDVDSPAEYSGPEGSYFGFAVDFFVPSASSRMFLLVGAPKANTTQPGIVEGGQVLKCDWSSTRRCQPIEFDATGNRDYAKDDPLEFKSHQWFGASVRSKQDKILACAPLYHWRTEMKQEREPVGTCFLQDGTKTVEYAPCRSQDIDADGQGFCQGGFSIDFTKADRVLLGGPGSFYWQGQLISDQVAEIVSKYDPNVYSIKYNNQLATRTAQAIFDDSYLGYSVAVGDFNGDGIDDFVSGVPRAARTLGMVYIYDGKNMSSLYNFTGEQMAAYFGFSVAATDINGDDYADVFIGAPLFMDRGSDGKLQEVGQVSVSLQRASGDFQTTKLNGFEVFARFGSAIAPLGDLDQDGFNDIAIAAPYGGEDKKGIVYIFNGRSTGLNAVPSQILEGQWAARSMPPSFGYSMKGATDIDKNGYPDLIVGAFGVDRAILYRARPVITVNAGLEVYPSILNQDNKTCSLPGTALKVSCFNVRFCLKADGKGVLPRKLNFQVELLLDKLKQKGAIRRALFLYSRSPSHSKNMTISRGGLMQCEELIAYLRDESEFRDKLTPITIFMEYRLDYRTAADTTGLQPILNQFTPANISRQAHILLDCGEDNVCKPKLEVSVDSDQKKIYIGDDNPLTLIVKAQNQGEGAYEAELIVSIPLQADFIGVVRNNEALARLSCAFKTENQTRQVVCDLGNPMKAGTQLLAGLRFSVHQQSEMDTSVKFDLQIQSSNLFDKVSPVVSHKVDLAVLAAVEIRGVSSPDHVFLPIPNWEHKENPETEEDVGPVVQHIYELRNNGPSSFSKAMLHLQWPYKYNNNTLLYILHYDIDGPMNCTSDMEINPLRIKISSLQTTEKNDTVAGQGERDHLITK
T2 sequence (P06756 891-1048 partner limits assumed): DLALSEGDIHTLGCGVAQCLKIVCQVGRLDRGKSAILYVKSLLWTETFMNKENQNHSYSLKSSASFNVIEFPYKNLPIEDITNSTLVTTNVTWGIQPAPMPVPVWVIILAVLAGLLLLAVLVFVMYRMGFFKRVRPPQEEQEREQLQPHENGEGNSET
T2 sequence (P05106 27-788): as the sequence (P05106 27-788) above
Summary of the method: as §1

Row | Compound | INHIBITION @ 250 uM RECEPTOR allBb3 SUBSTRATE FIBRINOGEN [1] | INHIBITION 250 uM RECEPTOR allBb3 SUBSTRATE VITRONECTIN [1] | INHIBITION 250 uM RECEPTOR aVb3 SUBSTRATE FIBRINOGEN [2]
1 | CCOC1O[C@H](COCc2cccc(N)c2)[C@@H](O)[C@H](OCc2ccc(C(=O)O)cc2)[C@H]1NC(=O)c1ccc(Cl)cc1 (stereo partly drawn) [Compound 65] | − (0% to 35% inhibition at 250 micromolar) | +++ (81% to 100% inhibition at 250 micromolar) | − (0% to 35% inhibition at 250 micromolar)
2 | Nc1cccc(COC2C(NC(=O)c3ccc(Cl)cc3)COC(COCC(=O)O)C2O)c1 (stereo not drawn) [Compound 80] | ++ (61% to 80% inhibition at 250 micromolar) | +++ (81% to 100% inhibition at 250 micromolar) | + (36% to 60% inhibition at 250 micromolar)
